Data on 15 compounds can be found in BindingDB's records for doi:10.1007/s00044-013-0797-8 (n/a, 2013).

Each structure is given as a SMILES string. “And” between values parts separate entries of the source, which are not always exact repeats. Equal values may be shown once.

As usually defined, the IC50 is the concentration that gives 50% inhibition. Low readings indicate higher potency, high ones lower potency.

In this assay the target is T1, Tyrosine-protein phosphatase non-receptor type 1 (Homo sapiens, UniProt P18031).
T1 sequence (P18031 whole entry): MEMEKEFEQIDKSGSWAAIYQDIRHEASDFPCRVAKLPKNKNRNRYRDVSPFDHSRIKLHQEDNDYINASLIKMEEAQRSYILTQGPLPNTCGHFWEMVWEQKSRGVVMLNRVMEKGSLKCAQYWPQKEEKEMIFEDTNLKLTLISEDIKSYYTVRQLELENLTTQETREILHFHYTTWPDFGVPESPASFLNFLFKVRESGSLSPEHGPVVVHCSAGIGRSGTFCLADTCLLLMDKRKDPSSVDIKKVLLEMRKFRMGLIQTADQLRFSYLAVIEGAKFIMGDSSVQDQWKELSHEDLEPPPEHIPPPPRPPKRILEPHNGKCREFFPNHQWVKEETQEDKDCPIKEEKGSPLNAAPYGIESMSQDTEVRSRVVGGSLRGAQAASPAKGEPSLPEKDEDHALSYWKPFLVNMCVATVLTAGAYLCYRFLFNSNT
Put plainly: Non-competitive reversible inhibition of human PTP1B.
`CC1(C)Cc2c(nn(-c3cccc(CO)c3)c(=N)c2C#N)CO1` displayed an IC50 of 2.4 µM.

The compound `CC1(C)Cc2c(nn(-c3cccc(Oc4ccccc4)c3)c(=N)c2C#N)CO1` came in with an IC50 of 3.9 µM.

In turn, `CC(C)c1ccccc1-n1nc2c(c(C#N)c1=N)CCSC2` gave an IC50 of 2 µM. The value for `CC(=O)Nc1ccc(-n2nc3c(c(C#N)c2=N)CC(C)(C)OC3)cc1` was 6.1 µM. As for `CCCCc1ccc(-n2nc3c(c(C#N)c2=N)CC(C)(C)OC3)cc1`, the figure is 7 µM; as for `CC1(C)Cc2c(nn(-c3ccccc3N3CCOCC3)c(=N)c2C#N)CO1`, 2.9 µM; as for `CC1(C)Cc2c(nn(-c3ccc(CCO)cc3)c(=N)c2C#N)CO1`, 2.9 µM. For `CCc1ccc(-n2nc3c(c(C#N)c2=N)CC(C)(C)OC3)cc1`, the half-inhibitory concentration (IC50) amounted to 2.8 µM. The value for `CC(C)c1cccc(-n2nc3c(c(C#N)c2=N)CC(C)(C)OC3)c1` was 8.2 µM; that for `CC1(C)Cc2c(nn(-c3ccccc3F)c(=N)c2C#N)CO1` was 2.4 µM; that for `CC1(C)Cc2c(nn(-c3cccc(C(F)(F)F)c3)c(=N)c2C#N)CO1` was 2.8 µM.

`CCc1cccc(-n2nc3c(c(C#N)c2=N)CC(C)(C)OC3)c1` displayed an IC50 of 8.2 µM. As for `COc1ccccc1-n1nc2c(c(C#N)c1=N)CC(C)(C)OC2`, the figure is 6.19 µM and 6.2 µM. The value for `N#Cc1c2c(nn(-c3ccc(F)cc3)c1=N)CSCC2` was 2 µM; that for `CC1(C)Cc2c(nn(-c3ccccc3C(F)(F)F)c(=N)c2C#N)CO1` was 3.9 µM.
